In the experiment the test system is HT-29. Nature of the experiment: Compound was tested for biological activity against human colon carcinoma cell line HT-29/219. The class given is functional, cell-based.
The term IC50 denotes the concentration at which inhibition is half-maximal. Read a low IC50 as greater potency. Regarding `COc1cc(NS(C)(=O)=O)ccc1Nc1c2ccccc2nc2c(C(=O)NC34C[C@H]5C[C@@H](C3)C[C@@H](C4)C5)cccc12`, the IC50 stood at 9.8 µM. `Nc1c2ccccc2nc2c(C(=O)NC3CCCCCCC3)cccc12` gave an IC50 of 5.2 µM. Consider `Nc1c2ccccc2nc2c(C(=O)NC34C[C@H]5C[C@@H](C3)C[C@@H](C4)C5)cccc12`, for which half-maximal inhibition (IC50) was put at 0.57 µM.

`COc1cc(NS(C)(=O)=O)ccc1Nc1c2ccccc2nc2c(C(=O)NC3CCCCCCC3)cccc12` displayed an IC50 of 5.8 µM. `CN(C)CCNC(=O)c1cccc2c(N)c3ccccc3nc12` displayed an IC50 of 0.14 µM. As for `Nc1c2ccccc2nc2c(C(=O)NC3CC3)cccc12`, half-maximal inhibition (IC50) required 5.8 µM.

`Nc1c2ccccc2nc2c(C(=O)NC3CCCCC3)cccc12` returned an IC50 of 5.6 µM.

With `COc1cc(NS(C)(=O)=O)ccc1Nc1c2ccccc2nc2c(C(=O)NC3CCCCC3)cccc12`, inhibition was half-maximal at 4.7 µM (IC50). The result for `COc1cc(NS(C)(=O)=O)ccc1Nc1c2ccccc2nc2c(C(=O)NC3CCCCCCCCCCC3)cccc12` reads 3.3 µM; that for `COc1cc(NS(C)(=O)=O)ccc1Nc1c2ccccc2nc2c(C(=O)NC3CC3)cccc12`, 3.6 µM.

With `Nc1c2ccccc2nc2c(C(=O)NC3CCCCCCCCCCC3)cccc12`, the IC50 was 7.7 µM. As to `COc1cc(NS(C)(=O)=O)ccc1Nc1c2ccccc2nc2c(C(=O)NCCN(C)C)cccc12`, the IC50 was 0.061 µM.

(Values after ChEMBL document CHEMBL1129134, “DNA threading agents: effect of sidechain bulk on DNA binding and cytotoxicity of 9-anilinoacridine-4-carboxamides” (Bioorg Med Chem Lett, 1996).)
